Experimental data reported in patent US20230190616A1, “COMPOUNDS USEFUL FOR THE TREATMENT AND/OR CARE OF THE SKIN, HAIR, NAILS AND/OR MUCOUS MEMBRANES” (LUBRIZOL ADVANCED MATERIALS, INC., priority 2018, published 2023).

Legend:
Type in all cases: cell-based
[1] = test system: human neuroblastoma cell line (SH-SY5Y); test: Inhibition of noradrenaline (NA) release from human neuroblastoma cells, ELISA; conditions: SH-SY5Y, respect to basal control, mean of 3 assays
Description: Inhibition of noradrenaline release from human neuroblastoma cells.
Release of neurotransmitters by exocytosis in neuromuscular junctions from peripheral neurons to skeletal muscle allows muscle contraction. Face muscles are subject to said contraction and facial muscle contraction is more frequent around eyes, mouth and forehead than elsewhere in the face. With age, continuous release of neurotransmitters into neuromuscular junctions and decrease of elasticity contribute to the increase of facial wrinkles and permanent expression lines. Compounds able to block or decrease exocytosis on neuromuscular junction sites are thus good candidates for the cosmetic treatment of unaesthetic wrinkles. In vitro induction of the neurotransmitter Noradrenaline (NA) release in a human neuroblastoma cell line (SH-SY5Y) is considered a direct and reliable method for exocytosis measurement. The aim of this study is to evaluate the efficacy of the peptides of the invention on the inhibition of neuronal exocytosis by means of measuring the levels of NA release in SH-SY5Y cells by Enzyme-linked Immunosorbent Assay (ELISA).
SH-SY5Y (ECACC) cells are seeded in 12-well plates at a density of 1×10^6 cells/well. After a 6-day culture, medium is removed from wells and cells are treated for 60 minutes with the peptides of the invention dissolved in Hank’s Balanced Salt Solution (HBSS, Life Technologies) at 1 and 2.5 mg/ml. Cells treated with HBSS alone are used as a basal control. To mobilize NA vesicles, supernatants are removed and 100 nM Tetradecanoylphorbol-13-acetate (TPA, Sigma) is dissolved in the presence of test items in HBSS or dissolved in HBSS alone in the case of the basal control. After this, solutions with TPA are removed and NA release is induced by the addition of 10 µM lonomycin (Epica) with 100 nM TPA dissolved in the presence of test items in HBSS or dissolved in HBSS alone in the case of the basal control. Afterwards, the medium in the wells, containing released NA, is collected and centrifuged. Supernatants obtained are used for quantification of NA by ELISA with noradrenalin ELISA kit (IBL International) following manufacturer’s instructions. In brief, direct sandwich ELISA is performed with a plate pre-coated with an anti-NA antibody. The color obtained after substrate addition is directly proportional to the amount of NA present in each condition tested. Absorbance is read in a microplate absorbance reader (Clariostar™, BMG) at 405 nm. The percentage of NA release for each condition is calculated respect to basal control.

[2] = test system: collagen type I in primary human dermal fibroblasts (HDFn); test: Type I collagen synthesis on human dermal fibroblasts by ELISA; conditions: 0.5 µg/ml, HDFn; for % Collagen induction: 48 hours, versus non-treated cells, mean of 5 assays
Description: In vitro study of type I collagen synthesis on human dermal fibroblasts by Enzyme-Linked Immunosorbent Assay.
Collagen type I is the principal collagen of skin. This molecule, which is mainly produced by fibroblasts, is responsible for the strength and resiliency of this tissue. For this reason, in vitro quantification of collagen induction by cosmetic products on human dermal fibroblasts provides information about their potential anti-aging effects on the skin. Collagen induction by the peptides of the invention is evaluated with an Enzyme-Linked Immunosorbent Assay (ELISA). The aim of this study is to investigate the ability of a product to induce collagen type I synthesis in primary human dermal fibroblasts isolated from neonatal skin (HDFn).
HDFn (Cascade) are seeded at a density of 5×10^4 in 48-well plates. After 24-hour incubation, fresh medium with scalar dilutions of the test items at 0.5 µg/ml are added. Non-treated cells are used as basal control. The cells are treated for 48 hours. Then, the medium of the wells is collected and transferred into a 96-well plate. A standard calibration curve prepared with calf skin type I collagen (Sigma) is transferred into the plate as well. The plate is left overnight in order to coat type I collagen into its surface. After that, collagen I is detected with an anti-collagen type I antibody (Sigma). The primary antibody is then recognized by a secondary antibody IgG-HRP (molecular probes). 3,3,5,5-tetramethylbenzidine liquid substrate (TMB, Sigma) is added to measure the amount of secondary antibody attached. The color produced by this reaction is measured in a microtiter plate reader (Clariostar™, BMG) and type I collagen concentration is determined using a linear regression of the standard curve.

[3] = test system: Musclebind like protein 1 (MBNL1) in human skeletal muscle cells (hSkMc); test: Quantification of Musclebind like protein 1 in human skeletal muscle cells by TR-FRET; conditions: 0.5 mg/ml, hSkMc; for % MBNL1 vs basal level: 48 hours, normalized to total protein
Method: In vitro quantification of Musclebind like protein 1 in human skeletal muscle cells by Time resolved fluorescence resonance energy transfer.
MBNL1 induction by the peptides of the invention is evaluated by a Time resolved fluorescence resonance energy transfer (TR-FRET) assay. The aim of this study is to investigate the capacity of peptide candidates to increase MBNL-1 in human skeletal muscle cells (hSkMc).
hSkMc (Innoprot) are seeded in 12-well plates at a density of 1.5×10^4 cells/well in Skeletal Muscle Cell Growth Medium (Promocell). After 72 hours incubation, medium is removed and replaced with Skeletal Muscle Cell Differentiation Medium (Promocell). 48 hours after beginning cell differentiation, fresh differentiation medium with 0.5 mg/ml of test items is added. Treatment is continued for 48 hours and non-treated cells are used as basal control. After 48 hours of treatment, cell medium is removed and cell lysis buffer is added to wells. Immediately, plates are kept at -80° C. in order to improve protein extraction during the defrosting process. After 72 hours, cells are lysed by shaking the plates in an orbital rotor at room temperature for 45 minutes. Next, cell lysates are collected and assayed to quantify the level of MBNL-1 protein and total protein concentration.
MBNL-1 protein levels measurement is performed with Human MBNL1 Assay Kit (Cisbio) according to the manufacturer’s protocol. Briefly, the kit is used to perform a TR-FRET for MBNL1 quantification. The protein is detected with the antibodies provided in the kit and quantified by a fluorescence measurement. The quantification is carried out by using a microplate reader (ClarioStar™™™, BMG) set to 665 nm and 620 nm.
Total protein concentration of cell lysate is determined by using Pierce BCA Protein Assay Kit (Thermo Scientific) according to manufacturer’s protocol. In brief, after adding Working Reagent to the samples and the standards, the samples are incubated. Afterwards, color change is measured with an absorbance microplate reader (Clariostar™, BMG) at 562 nm. The total protein amount is used to normalize the level of MBNL1 protein concentration obtained by the TR-FRET test in the samples.

Substance	% Released NA ([1]; 1 mg/ml) [%]	% Released NA ([1]; 2.5 mg/ml) [%]	% Collagen induction [2] [%]	% MBNL1 vs basal level [3] [%]	MBNL1 levels compared to the basal control and to Argireline (in words) [3]	Efficacy in increasing collagen type I compared with Argireline (in words) [2]
Ac-L-Arg-L-Arg-D-Gln-L-Met-L-Glu-L-Glu-NH2 [PEP-22]	58.9	49.0	106.0	141.4	increase MBNL1 levels	–
Ac-L-Arg-L-Arg-L-Gln-D-Met-L-Glu-L-Glu-NH2 [PEP-23]	78.9	52.8	114.6	142.3	increase MBNL1 levels	even higher
